Measured values published in patent US9738612B2, “Methylacryloyl benzimidazolone derivative and anti-tumour use thereof” (SHANGHAI NATURE STANDARD R&D AND BIOTECH CO., LTD, priority 2014, dated 2017).

What was measured:
[1] = test system: Akt phosphorylation at S473 site; experiment: ELISA (double antibody sandwich), Akt phosphorylation in IGF-1 stimulated A549 cells; assay type: cell-based; settings: drug 1 h, then IGF-1 10 min, p-Akt (S473) ELISA
Experimental: Establishment of ELISA screening method using a double antibody sandwich method: A549 cells (a lung cancer cell line, purchased from Chinese Academy of Sciences, Shanghai Institutes for Biological Sciences Cell Resource Center) were inoculated at certain densities in 12-well plates, and incubated at 37° C. in a carbon dioxide incubator overnight to let cells attach the plate wells. Meanwhile the Akt antibody was inoculated at a specific concentration in a highly-adsorbed microplate, and placed in a refrigerator at 4° C. The 12-well plates were washed with sterile PBS three times, then into which serum-free F12 was added, and incubated for 24 hours in a incubator. Then MK2206, Triciribine and FD series drugs were added into 12-well plates and worked for one hour, followed by adding 100 ng of IGF-1 and being stimulated for 10 minutes. The 12-well plates were washed with pre-cooled PBS three times, and 100 μl of RIPA lysis buffer was added into each well to lyse cells on ice for 20 minutes. The lysates were collected and added to the appropriate microplate (purchased from Santa Cruz biotechnology), which were shaken on ice. A p-Akt (S473) antibody (purchased Cell Signaling Technology, Inc.) was added into microplates. After shaking for a period of time, an anti-rabbit antibody (purchased from Cell Signaling Technology, Inc.) was added. The reaction was terminated with 2M sulfuric acid after TMB developed. Absorbance at 450 nm was measured on a microplate reader, and the inhibitory rate=[…], among which ODsample refers to the absorbance of the sample well, ODIGF refers the absorbance of the well with IGF only, OD—IGF refers the absorbance of the well withoutIGF.

PEK(h) = biological target: T1, PEK(h) (Homo sapiens, UniProt Q9NZJ5); experiment: Tumor-associated kinase inhibition test; assay type: biochemical; settings: read-out: Inhibitory rate (%)
T1 construct: purchased Eurofins Pharma Discovery Services UK Limited
From the text: (§1) Eurofins Pharma Discovery Services UK Limited completed and reported this experiment.

ROCK-I(h) = biological target: T2, ROCK-I(h) (Homo sapiens, UniProt Q13464); experiment: Tumor-associated kinase inhibition test; assay type: biochemical; settings: read-out: Inhibitory rate (%)
T2 construct: purchased Eurofins Pharma Discovery Services UK Limited
T2 sequence (Q13464 whole entry): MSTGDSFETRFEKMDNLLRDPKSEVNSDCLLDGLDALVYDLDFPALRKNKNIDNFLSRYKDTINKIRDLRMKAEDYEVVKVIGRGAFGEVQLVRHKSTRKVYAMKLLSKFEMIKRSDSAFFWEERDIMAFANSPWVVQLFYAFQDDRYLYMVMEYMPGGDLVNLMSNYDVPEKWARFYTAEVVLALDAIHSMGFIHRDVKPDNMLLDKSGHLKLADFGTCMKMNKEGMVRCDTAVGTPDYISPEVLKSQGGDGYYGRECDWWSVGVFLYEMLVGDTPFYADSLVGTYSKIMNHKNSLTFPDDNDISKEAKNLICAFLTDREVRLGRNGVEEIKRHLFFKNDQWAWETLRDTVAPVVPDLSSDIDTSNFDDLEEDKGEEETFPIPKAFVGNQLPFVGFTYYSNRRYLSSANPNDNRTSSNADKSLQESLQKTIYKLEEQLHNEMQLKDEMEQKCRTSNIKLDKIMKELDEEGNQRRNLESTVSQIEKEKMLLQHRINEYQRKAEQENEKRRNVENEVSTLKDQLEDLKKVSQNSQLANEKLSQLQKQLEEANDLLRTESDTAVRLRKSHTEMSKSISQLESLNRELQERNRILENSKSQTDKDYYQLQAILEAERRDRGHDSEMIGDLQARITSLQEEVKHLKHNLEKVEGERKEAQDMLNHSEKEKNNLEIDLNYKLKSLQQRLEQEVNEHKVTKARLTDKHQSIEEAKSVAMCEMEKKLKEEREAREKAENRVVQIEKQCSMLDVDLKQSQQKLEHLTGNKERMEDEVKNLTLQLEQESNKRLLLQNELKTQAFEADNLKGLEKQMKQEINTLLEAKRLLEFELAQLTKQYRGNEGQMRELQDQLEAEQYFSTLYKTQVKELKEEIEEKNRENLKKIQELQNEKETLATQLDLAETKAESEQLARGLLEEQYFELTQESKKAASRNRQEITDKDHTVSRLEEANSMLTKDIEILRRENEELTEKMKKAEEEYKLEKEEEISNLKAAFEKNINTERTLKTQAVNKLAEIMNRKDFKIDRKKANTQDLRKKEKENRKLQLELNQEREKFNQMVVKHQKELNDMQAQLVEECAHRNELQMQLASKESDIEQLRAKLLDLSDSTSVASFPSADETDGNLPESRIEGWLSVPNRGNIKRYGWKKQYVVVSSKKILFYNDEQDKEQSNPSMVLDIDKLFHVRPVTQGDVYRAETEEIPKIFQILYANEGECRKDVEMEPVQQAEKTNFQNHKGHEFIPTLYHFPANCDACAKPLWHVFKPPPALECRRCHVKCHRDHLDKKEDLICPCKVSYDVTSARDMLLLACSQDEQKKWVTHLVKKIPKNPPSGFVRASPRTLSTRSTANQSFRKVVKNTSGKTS
From the text: as §1

CDK1/cyclinB(h) = biological target: T3, CDK1/cyclinB(h) (Homo sapiens, UniProt P06493); experiment: Tumor-associated kinase inhibition test; assay type: biochemical; settings: read-out: Inhibitory rate (%)
T3 construct: purchased Eurofins Pharma Discovery Services UK Limited (contract assay service)
From the text: as §1

Lck(h)activated = biological target: T4, Lck(h)activated (Homo sapiens, UniProt P06239); experiment: Tumor-associated kinase inhibition test; assay type: biochemical; settings: read-out: Inhibitory rate (%)
T4 construct: purchased Eurofins Pharma Discovery Services UK Limited
From the text: as §1

PDK1(h) = biological target: T5, PDK1(h) (Homo sapiens, UniProt O15530); experiment: Tumor-associated kinase inhibition test; assay type: biochemical; settings: read-out: Inhibitory rate (%)
T5 construct: purchased Eurofins Pharma Discovery Services UK Limited
From the text: as §1

PI3Kinase(p110δ/p85α)(h) = biological target: T6, PI3Kinase(p110δ/p85α)(h) (Homo sapiens, UniProt O00329); experiment: Tumor-associated kinase inhibition test; assay type: biochemical; settings: read-out: Inhibitory rate (%)
T6 construct: purchased Eurofins Pharma Discovery Services UK Limited (contract assay)
From the text: as §1

PI3Kinase(p120γ)(h) = biological target: T7, PI3Kinase(p120γ)(h) (Homo sapiens, UniProt P48736); experiment: Tumor-associated kinase inhibition test; assay type: biochemical; settings: read-out: Inhibitory rate (%)
T7 construct: purchased Eurofins Pharma Discovery Services UK Limited (contract assay)
T7 sequence (P48736 whole entry): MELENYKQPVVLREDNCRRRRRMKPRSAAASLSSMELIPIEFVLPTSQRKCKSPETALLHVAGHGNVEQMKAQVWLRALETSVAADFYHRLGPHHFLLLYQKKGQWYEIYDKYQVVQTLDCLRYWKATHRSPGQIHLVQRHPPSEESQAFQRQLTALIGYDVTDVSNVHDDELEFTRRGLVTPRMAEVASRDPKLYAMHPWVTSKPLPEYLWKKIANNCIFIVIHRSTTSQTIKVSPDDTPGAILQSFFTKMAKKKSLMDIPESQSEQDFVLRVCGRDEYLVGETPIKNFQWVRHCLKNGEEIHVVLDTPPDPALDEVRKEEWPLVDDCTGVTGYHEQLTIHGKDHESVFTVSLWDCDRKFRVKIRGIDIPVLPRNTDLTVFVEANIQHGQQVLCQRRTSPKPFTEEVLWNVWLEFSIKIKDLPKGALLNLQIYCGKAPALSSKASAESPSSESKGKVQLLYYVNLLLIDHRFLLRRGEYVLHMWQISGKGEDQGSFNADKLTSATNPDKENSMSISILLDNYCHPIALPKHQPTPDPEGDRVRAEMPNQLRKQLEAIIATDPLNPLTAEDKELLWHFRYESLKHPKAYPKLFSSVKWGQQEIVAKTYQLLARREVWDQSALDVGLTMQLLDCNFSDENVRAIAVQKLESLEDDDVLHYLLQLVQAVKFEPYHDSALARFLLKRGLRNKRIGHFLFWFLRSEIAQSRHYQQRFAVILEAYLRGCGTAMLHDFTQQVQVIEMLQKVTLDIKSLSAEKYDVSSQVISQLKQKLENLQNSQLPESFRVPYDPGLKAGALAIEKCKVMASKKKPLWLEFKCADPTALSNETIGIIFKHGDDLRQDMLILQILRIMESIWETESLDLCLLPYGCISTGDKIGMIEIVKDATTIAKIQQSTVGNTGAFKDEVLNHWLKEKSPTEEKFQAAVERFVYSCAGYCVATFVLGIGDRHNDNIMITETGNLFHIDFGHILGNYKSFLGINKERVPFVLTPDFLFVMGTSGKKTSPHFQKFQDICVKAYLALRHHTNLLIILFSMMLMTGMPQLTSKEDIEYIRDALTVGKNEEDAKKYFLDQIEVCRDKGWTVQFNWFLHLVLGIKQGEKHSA
From the text: as §1

Rsk1(h) = biological target: T8, Rsk1(h) (Homo sapiens, UniProt Q15418); experiment: Tumor-associated kinase inhibition test; assay type: biochemical; settings: read-out: Inhibitory rate (%)
T8 construct: purchased Eurofins Pharma Discovery Services UK Limited
From the text: as §1

PKCγ(h) = biological target: T9, PKCγ(h) (Homo sapiens, UniProt P05129); experiment: Tumor-associated kinase inhibition test; assay type: biochemical; settings: read-out: Inhibitory rate (%)
T9 construct: purchased Eurofins Pharma Discovery Services UK Limited
From the text: as §1

mTOR(h) = biological target: T10, mTOR(h) (Homo sapiens, UniProt P42345); experiment: Tumor-associated kinase inhibition test; assay type: biochemical
T10 construct: purchased Eurofins Pharma Discovery Services UK Limited (contract assay)
From the text: as §1

Rsk2(h) = biological target: T11, Rsk2(h) (Homo sapiens, UniProt P51812); experiment: Tumor-associated kinase inhibition test; assay type: biochemical; settings: read-out: Inhibitory rate (%)
T11 construct: purchased Eurofins Pharma Discovery Services UK Limited
From the text: as §1

MKK6(h) = biological target: T12, MKK6(h) (Homo sapiens, UniProt P52564); experiment: Tumor-associated kinase inhibition test; assay type: biochemical; settings: read-out: Inhibitory rate (%)
T12 construct: purchased Eurofins Pharma Discovery Services UK Limited
From the text: as §1

NEK2(h) = biological target: T13, NEK2(h) (Homo sapiens, UniProt P51955); experiment: Tumor-associated kinase inhibition test; assay type: biochemical; settings: read-out: Inhibitory rate (%)
T13 construct: purchased Eurofins Pharma Discovery Services UK Limited
T13 sequence (P51955 whole entry): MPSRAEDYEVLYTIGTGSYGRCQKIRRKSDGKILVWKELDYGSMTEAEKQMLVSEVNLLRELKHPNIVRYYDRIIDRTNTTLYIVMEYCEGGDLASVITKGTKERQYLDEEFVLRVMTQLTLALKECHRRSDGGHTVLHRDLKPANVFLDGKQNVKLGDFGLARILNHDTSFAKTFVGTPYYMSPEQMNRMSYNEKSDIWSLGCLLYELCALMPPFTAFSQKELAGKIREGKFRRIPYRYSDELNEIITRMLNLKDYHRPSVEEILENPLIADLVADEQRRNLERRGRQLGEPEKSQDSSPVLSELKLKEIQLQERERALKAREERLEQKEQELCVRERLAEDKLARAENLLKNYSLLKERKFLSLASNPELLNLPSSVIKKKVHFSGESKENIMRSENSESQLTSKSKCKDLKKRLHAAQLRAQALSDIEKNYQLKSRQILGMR
From the text: as §1

CDK7/cyclinH/MAT1(h) = biological target: T14, CDK7/cyclinH/MAT1(h) (Homo sapiens, UniProt P50613); experiment: Tumor-associated kinase inhibition test; assay type: biochemical; settings: read-out: Inhibitory rate (%)
T14 construct: purchased Eurofins Pharma Discovery Services UK Limited (contract assay service)
T14 sequence (P50613 whole entry): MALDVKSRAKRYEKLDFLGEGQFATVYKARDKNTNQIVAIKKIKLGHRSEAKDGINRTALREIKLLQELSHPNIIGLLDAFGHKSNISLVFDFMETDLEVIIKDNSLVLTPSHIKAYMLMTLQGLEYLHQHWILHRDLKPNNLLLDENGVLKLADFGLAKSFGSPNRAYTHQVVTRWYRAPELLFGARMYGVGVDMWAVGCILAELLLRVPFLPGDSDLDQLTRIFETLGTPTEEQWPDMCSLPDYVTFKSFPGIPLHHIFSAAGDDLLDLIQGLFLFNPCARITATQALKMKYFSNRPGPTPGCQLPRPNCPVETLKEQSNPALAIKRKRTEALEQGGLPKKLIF
T14 sequence (P51946 whole entry partner): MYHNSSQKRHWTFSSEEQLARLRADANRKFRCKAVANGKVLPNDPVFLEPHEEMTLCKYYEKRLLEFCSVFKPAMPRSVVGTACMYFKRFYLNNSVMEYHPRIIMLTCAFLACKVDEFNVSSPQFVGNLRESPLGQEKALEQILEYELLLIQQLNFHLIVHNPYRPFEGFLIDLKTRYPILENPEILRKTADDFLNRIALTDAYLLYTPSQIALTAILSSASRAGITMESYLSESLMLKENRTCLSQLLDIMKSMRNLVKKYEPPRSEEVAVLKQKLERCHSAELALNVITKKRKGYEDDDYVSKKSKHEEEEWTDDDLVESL
T14 sequence (P51948 whole entry partner): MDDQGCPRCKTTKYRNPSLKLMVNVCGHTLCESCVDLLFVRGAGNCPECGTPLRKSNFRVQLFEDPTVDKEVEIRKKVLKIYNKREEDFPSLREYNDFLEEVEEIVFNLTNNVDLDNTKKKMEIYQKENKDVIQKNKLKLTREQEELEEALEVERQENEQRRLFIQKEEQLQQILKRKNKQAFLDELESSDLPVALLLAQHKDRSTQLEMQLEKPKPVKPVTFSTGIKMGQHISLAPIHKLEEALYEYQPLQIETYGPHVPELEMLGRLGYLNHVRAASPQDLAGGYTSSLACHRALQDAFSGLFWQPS
From the text: as §1

Flt3(h) = biological target: T15, Flt3(h) (Homo sapiens, UniProt P36888); experiment: Tumor-associated kinase inhibition test; assay type: biochemical; settings: read-out: Inhibitory rate (%)
T15 construct: purchased Eurofins Pharma Discovery Services UK Limited (contract testing)
From the text: as §1

B-Raf(V599E)(h) = biological target: T16, B-Raf(V599E)(h) (Homo sapiens, UniProt P15056, V600E); experiment: Tumor-associated kinase inhibition test; assay type: biochemical; settings: read-out: Inhibitory rate (%)
T16 construct: purchased Eurofins Pharma Discovery Services UK Limited (contract assay service)
From the text: as §1

c-RAF(h) = biological target: T17, c-RAF(h) (Homo sapiens, UniProt P04049); experiment: Tumor-associated kinase inhibition test; assay type: biochemical; settings: read-out: Inhibitory rate (%)
T17 construct: purchased Eurofins Pharma Discovery Services UK Limited (contract testing)
From the text: as §1

Ron(h) = biological target: T18, Ron(h) (Homo sapiens, UniProt Q04912); experiment: Tumor-associated kinase inhibition test; assay type: biochemical; settings: read-out: Inhibitory rate (%)
T18 construct: purchased Eurofins Pharma Discovery Services UK Limited
From the text: as §1

B-Raf(h) = biological target: T19, B-Raf(h) (Homo sapiens, UniProt P15056); experiment: Tumor-associated kinase inhibition test; assay type: biochemical; settings: read-out: Inhibitory rate (%)
T19 construct: purchased Eurofins Pharma Discovery Services UK Limited (contract assay service)
From the text: as §1

PIP5K1γ(h) = biological target: T20, PIP5K1γ(h) (Homo sapiens, UniProt O60331); experiment: Tumor-associated kinase inhibition test; assay type: biochemical; settings: read-out: Inhibitory rate (%)
T20 construct: purchased Eurofins Pharma Discovery Services UK Limited (contract assay)
From the text: as §1

Bmx(h) = biological target: T21, Bmx(h) (Homo sapiens, UniProt P51813); experiment: Tumor-associated kinase inhibition test; assay type: biochemical; settings: read-out: Inhibitory rate (%)
T21 construct: purchased Eurofins Pharma Discovery Services UK Limited (contract assay service)
From the text: as §1

PKA(h) = biological target: T22, PKA(h) (Homo sapiens, UniProt P17612); experiment: Tumor-associated kinase inhibition test; assay type: biochemical; settings: read-out: Inhibitory rate (%)
T22 construct: purchased Eurofins Pharma Discovery Services UK Limited
From the text: as §1

MST2(h) = biological target: T23, MST2(h) (Homo sapiens, UniProt Q13188); experiment: Tumor-associated kinase inhibition test; assay type: biochemical; settings: read-out: Inhibitory rate (%)
T23 construct: purchased Eurofins Pharma Discovery Services UK Limited
From the text: as §1

CaMKIV(h) = biological target: T24, CaMKIV(h) (Homo sapiens, UniProt Q16566); experiment: Tumor-associated kinase inhibition test; assay type: biochemical; settings: read-out: Inhibitory rate (%)
T24 construct: purchased Eurofins Pharma Discovery Services UK Limited (contract assay service)
From the text: as §1

Yes(h) = biological target: T25, Yes(h) (Homo sapiens, UniProt P07947); experiment: Tumor-associated kinase inhibition test; assay type: biochemical; settings: read-out: Inhibitory rate (%)
T25 construct: purchased Eurofins Pharma Discovery Services UK Limited
From the text: as §1

PRK2(h) = biological target: T26, PRK2(h) (Homo sapiens, UniProt Q16513); experiment: Tumor-associated kinase inhibition test; assay type: biochemical; settings: read-out: Inhibitory rate (%)
T26 construct: purchased Eurofins Pharma Discovery Services UK Limited
From the text: as §1

IKKα(h) = biological target: T27, IKKα(h) (Homo sapiens, UniProt O15111); experiment: Tumor-associated kinase inhibition test; assay type: biochemical; settings: read-out: Inhibitory rate (%)
T27 construct: purchased Eurofins Pharma Discovery Services UK Limited (contract testing)
From the text: as §1

Arg(h) = biological target: T28, Arg(h) (Homo sapiens, UniProt P42684); experiment: Tumor-associated kinase inhibition test; assay type: biochemical; settings: read-out: Inhibitory rate (%)
T28 construct: purchased Eurofins Pharma Discovery Services UK Limited (contract assay service)
From the text: as §1

CSK(h) = biological target: T29, CSK(h) (Homo sapiens, UniProt P41240); experiment: Tumor-associated kinase inhibition test; assay type: biochemical; settings: read-out: Inhibitory rate (%)
T29 construct: purchased Eurofins Pharma Discovery Services UK Limited (contract testing)
T29 sequence (P41240 whole entry): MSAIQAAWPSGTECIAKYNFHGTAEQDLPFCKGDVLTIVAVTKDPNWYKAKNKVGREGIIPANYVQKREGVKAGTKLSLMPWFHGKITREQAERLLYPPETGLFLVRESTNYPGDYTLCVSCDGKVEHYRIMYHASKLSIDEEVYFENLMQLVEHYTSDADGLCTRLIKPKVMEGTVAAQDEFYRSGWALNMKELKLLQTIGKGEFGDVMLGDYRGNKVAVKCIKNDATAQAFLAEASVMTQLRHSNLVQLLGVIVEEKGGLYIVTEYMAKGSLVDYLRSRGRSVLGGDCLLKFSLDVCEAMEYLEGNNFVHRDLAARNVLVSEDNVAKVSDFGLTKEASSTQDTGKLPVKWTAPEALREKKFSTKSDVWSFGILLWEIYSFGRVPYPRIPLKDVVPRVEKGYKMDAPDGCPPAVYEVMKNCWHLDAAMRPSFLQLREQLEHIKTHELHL
From the text: as §1

**Q.** Which results are given for `C=C(C)n1c(=O)n(C(C)=O)c2ncc(Br)cc21` [FD162]?
**A.** Inhibitory rate % (Akt phosphorylation) [1]: 91%; inhibition at 10 µM (PEK(h)): 0%; inhibition at 10 µM (ROCK-I(h)): -4%; inhibition at 10 µM (CDK1/cyclinB(h)): 1%; inhibition at 10 µM (Lck(h)activated): -1%; inhibition at 10 µM (PDK1(h)): -1%; inhibition at 10 µM (PI3Kinase(p110δ/p85α)(h)): 3%; inhibition at 10 µM (PI3Kinase(p120γ)(h)): 2%; inhibition at 10 µM (Rsk1(h)): 9%; inhibition at 10 µM (PKCγ(h)): 11%; Selectivity among 114 tumor-associated kinases (mTOR(h); 10 μM, in words): selectively inhibit the activity of mTOR; inhibition at 10 µM (mTOR(h); mTOR(h), read-out: Inhibitory rate (%)): 95%; inhibition at 10 µM (Rsk2(h)): 4%; inhibition at 10 µM (MKK6(h)): 5%; inhibition at 10 µM (NEK2(h)): -6%; inhibition at 10 µM (CDK7/cyclinH/MAT1(h)): -8%; inhibition at 10 µM (Flt3(h)): 4%; inhibition at 10 µM (B-Raf(V599E)(h)): -1%; inhibition at 10 µM (c-RAF(h)): -3%; inhibition at 10 µM (Ron(h)): 8%; inhibition at 10 µM (B-Raf(h)): -6%; inhibition at 10 µM (PIP5K1γ(h)): -1%; inhibition at 10 µM (Bmx(h)): -7%; inhibition at 10 µM (PKA(h)): -5%; inhibition at 10 µM (MST2(h)): 1%; inhibition at 10 µM (CaMKIV(h)): 2%; inhibition at 10 µM (Yes(h)): -2%; inhibition at 10 µM (PRK2(h)): -9%; inhibition at 10 µM (IKKα(h)): 5%; inhibition at 10 µM (Arg(h)): -7%; inhibition at 10 µM (CSK(h)): -12%
